Among the data in patent US12419874B2, “GLP-1R agonist compound and use thereof” (Chongqing Pharmaceutical Research Institute Co., Ltd., priority 2024, dated 2025) are EC50 values, retold here.

A value given as a limit tells only on which side of the number the result lay.

The term EC50 denotes the midpoint of the concentration-response curve.

This assay deals with GLP-1R (Homo sapiens, UniProt P43220). Description: GLP-1R agonistic activity by One-Lite luciferase assay in HEK293-GLP-1R-luc cells (Example 59). Conditions: 6 h incubation, read-out: cAMP EC50. It counts as cell-based. As for the experimental part: The agonistic activities of the compounds of the present disclosure on GLP-1R were evaluated by detecting the generation of cAMP.
Chain of GLP-1R (P43220 24-463): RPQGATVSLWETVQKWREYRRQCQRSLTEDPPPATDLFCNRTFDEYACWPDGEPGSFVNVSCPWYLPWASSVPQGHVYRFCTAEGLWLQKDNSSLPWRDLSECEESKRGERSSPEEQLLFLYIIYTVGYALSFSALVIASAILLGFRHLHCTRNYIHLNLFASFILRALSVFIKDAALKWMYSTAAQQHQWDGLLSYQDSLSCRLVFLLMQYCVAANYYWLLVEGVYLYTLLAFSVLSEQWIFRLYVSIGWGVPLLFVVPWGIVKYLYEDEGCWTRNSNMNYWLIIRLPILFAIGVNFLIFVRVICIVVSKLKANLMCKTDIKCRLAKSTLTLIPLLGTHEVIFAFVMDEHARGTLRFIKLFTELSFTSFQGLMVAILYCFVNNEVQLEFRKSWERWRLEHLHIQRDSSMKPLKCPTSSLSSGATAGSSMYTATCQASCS
• (1) Cell line: HEK293-GLP-1R-luc Stable Cell Line (Cobioer, CBP71117); • (2) Culture medium: DMEM+10% FBS (Gibco); • (3) Kit: One-Lite™ kit Luciferase Assay System (Vazyme). 2. Experimental Procedures • (1) HEK293-GLP1R cells were inoculated in a 96-well plate at a density of 30000 cells per well; • (2) 10× working solution of each compound was formulated; • (3) 10 μL of 10× working solution of each compound was added to corresponding well and incubated at 37° C. for 6 h; • (4) 100 μL of One-Lite Luciferase Assay Substrate formulated using One-Lite Luciferase Assay Buffer was added to each well; • (5) The plate was incubated at room temperature for 3 min; • (6) The plate was read by a multimode microplate reader to detect chemiluminescence. 3. Data Analysis • (1) % Activity was calculated by the following formula: % Activity=100−(Signalcmpd−SignalAve-PC)/(SignalAve-VC−SignalAve-PC)×100 • (2) The dose-response curve was plotted to calculate EC50: Y=Bottom+(Top−Bottom)/(1+10^(Log EC50−X)*HillSlope)) • X: log of agonist concentration; Y: Activity. 4. Experimental Results
Consider `Cc1cc(-n2nc3c(c2-n2ccn(-c4ccc5c(cnn5C)c4F)c2=O)[C@H](C)N(C(=O)c2cc4cc([C@H]5CCOC(C)(C)C5)ccc4n2[C@@]2(c4noc(=O)[nH]4)C[C@@H]2C)CC32CCC2)cc(C)c1F` [Compound 23], for which the EC50 is at most 20 nM.

`Cc1cc(-n2nc3c(c2-n2ccn(-c4ccc5c(cnn5C)c4F)c2=O)[C@H](C)N(C(=O)c2cc4cc([C@H]5CCOC(C)(C)C5)ccc4n2[C@@]2(c4noc(=O)[nH]4)C[C@@H]2C)CC32CC(O)C(O)C2)cc(C)c1F` (some centres unmarked) [Compound 213]: the EC50 is at most 20 nM. With `Cc1cc(-n2nc3c(c2-n2ccn(-c4ccc5c(cnn5C)c4F)c2=O)[C@H](C)N(C(=O)c2cc4cc(C5CCOCC5)ccc4n2C2(c4noc(=O)[nH]4)CC2)CC32CC2)cc(C)c1F` [Compound 174] the figure was 100 to 300 nM; with `Cc1cc(-n2nc3c(c2-n2ccn(-c4ccc5c(cnn5C)c4F)c2=O)[C@H](C)N(C(=O)c2cc4cc([C@H]5CCOC(C)(C)C5)ccc4n2[C@@]2(c4noc(=O)[nH]4)C[C@@H]2C)CC32CCC(F)C2)cc(C)c1F` (some centres unmarked) [Compound 211], at most 20 nM; with `Cc1cc(-n2nc3c(c2-n2ccn(-c4ccc5c(cnn5C)c4F)c2=O)[C@H](C)N(C(=O)c2cc4cc([C@H]5CCOC(C)(C)C5)ccc4n2[C@@]2(c4noc(=O)[nH]4)C[C@@H]2C)CC32CCC(F)(F)CC2)cc(C)c1F` [Compound 200], 20 to 100 nM.

`C[C@H]1c2c(nn(-c3ccc(F)c(C4CC4)c3)c2-n2ccn(-c3ccc4c(cnn4C)c3F)c2=O)C2(CC2)CN1C(=O)c1cc2cc([C@H]3CCOC(C)(C)C3)ccc2n1[C@@]1(c2noc(=O)[nH]2)C[C@@H]1C` [Compound 171]: the EC50 was at most 20 nM.

`Cc1cc(-n2nc3c(c2-n2ccn(-c4ccc5c(cnn5C)c4F)c2=O)[C@H](C)N(C(=O)c2cc4cc([C@H]5CCOC(C)(C)C5)ccc4n2[C@@]2(c4noc(=O)[nH]4)C[C@@H]2C)CC32CC=CC2)cc(C)c1F` [Compound 172]: the 50% effective concentration (EC50) was at most 20 nM. The result for `Cc1cc(-n2nc3c(c2-n2ccn(-c4ccc5c(cnn5C)c4F)c2=O)[C@H](C)N(C(=O)c2cc4cc([C@H]5CCOC(C)(C)C5)ccc4n2[C@@]2(c4noc(=O)[nH]4)C[C@@H]2C)CC32C[C@@H]2C)cc(C)c1F` (some centres unmarked) [Compound 227] reads 20 to 100 nM; that for `Cc1cc(-n2nc3c(c2-n2ccn(-c4ccc5c(cnn5C)c4F)c2=O)[C@H](C)N(C(=O)c2cc4cc([C@H]5CCOC(C)(C)C5)ccc4n2[C@@]2(c4noc(=O)[nH]4)C[C@@H]2C)CC32CSC2)cc(C)c1F` [Compound 189], at most 20 nM; that for `CNC1CCC2(C1)CN(C(=O)c1cc3cc([C@H]4CCOC(C)(C)C4)ccc3n1[C@@]1(c3noc(=O)[nH]3)C[C@@H]1C)[C@@H](C)c1c2nn(-c2cc(C)c(F)c(C)c2)c1-n1ccn(-c2ccc3c(cnn3C)c2F)c1=O` (some centres unmarked) [Compound 229], at most 20 nM.

On to `Cc1cc(-n2nc3c(c2-n2ccn(-c4ccc5c(cnn5C)c4F)c2=O)[C@H](C)N(C(=O)c2cc4cc([C@H]5CCOC(C)(C)C5)ccc4n2[C@@]2(c4noc(=O)[nH]4)C[C@@H]2C)CC32CCN(C(=O)C(F)(F)F)CC2)cc(C)c1F` [Compound 155], for which the 50% effective concentration (EC50) was at most 20 nM. `Cc1cc(-n2nc3c(c2-n2ccn(-c4ccc5c(cnn5C)c4F)c2=O)[C@H](C)N(C(=O)c2cc4cc([C@H]5CCOC(C)(C)C5)ccc4n2[C@@]2(c4noc(=O)[nH]4)C[C@@H]2C)CC32C[S+]([O-])C2)cc(C)c1F` (some centres unmarked) [Compound 190]: the EC50 is at most 20 nM. As for `Cc1cc(-n2nc3c(c2-n2ccn(-c4ccc5c(cnn5C)c4F)c2=O)[C@H](C)N(C(=O)c2cc4cc([C@H]5CCOC(C)(C)C5)ccc4n2[C@@]2(c4noc(=O)[nH]4)C[C@@H]2C)CC32CC(N)C2)cc(C)c1F` (some centres unmarked) [Compound 183], the concentration giving a half-maximal response (EC50) was at most 20 nM. Take `CC(=O)N1CC2(C1)CN(C(=O)c1cc3cc([C@H]4CCOC(C)(C)C4)ccc3n1[C@@]1(c3noc(=O)[nH]3)C[C@@H]1C)[C@@H](C)c1c2nn(-c2cc(C)c(F)c(C)c2)c1-n1ccn(-c2ccc3c(cnn3C)c2F)c1=O` [Compound 166]: the 50% effective concentration (EC50) was at most 20 nM.

Turning to `Cc1cc(-n2nc3c(c2-n2ccn(-c4ccc5c(cnn5C)c4F)c2=O)[C@H](C)N(C(=O)c2cc4cc([C@H]5CCOC(C)(C)C5)ccc4n2[C@@]2(c4noc(=O)[nH]4)C[C@@H]2C)CC32C=CCC2)cc(C)c1F` (some centres unmarked) [Compound 197], the concentration for a half-maximal effect (EC50) was at most 20 nM. As for `Cc1cc(-n2nc3c(c2-n2ccn(-c4ccc5c(cnn5C)c4F)c2=O)[C@H](C)N(C(=O)c2cc4cc([C@H]5CCOC(C)(C)C5)ccc4n2[C@@]2(c4noc(=O)[nH]4)C[C@@H]2C)CC32CCOC2)cc(C)c1F` (some centres unmarked) [Compound 29], the half-maximal effective concentration (EC50) was at most 20 nM. With `Cc1cc(-n2nc3c(c2-n2ccn(-c4ccc5c(cnn5C)c4F)c2=O)[C@H](C)N(C(=O)c2cc4cc(C5CCOC(C)(C)C5)ccn4c2C2(c4noc(=O)[nH]4)CC2)CC32CC2)cc(C)c1F` (single isomer, unassigned) [Compound 185-A], the EC50 was over 300 nM. Consider `Cc1cc(-n2nc3c(c2-n2ccn(-c4ccc5nn(CC(F)(F)F)cc5c4F)c2=O)[C@H](C)N(C(=O)c2cc4cc([C@H]5CCOC(C)(C)C5)ccc4n2[C@@]2(c4noc(=O)[nH]4)C[C@@H]2C)CC32CC2)cc(C)c1F` [Compound 224], for which the EC50 was in the range of 20 to 100 nM. Turning to `Cc1cc(-n2nc3c(c2-n2ccn(-c4ccc5c(cnn5C)c4F)c2=O)[C@H](C)N(C(=O)c2cc4cc([C@H]5CCOC(C)(C)C5)ccc4n2[C@@]2(c4noc(=O)[nH]4)C[C@@H]2C)CC32CN(C(=O)C(F)(F)F)C2)cc(C)c1F` [Compound 167], the EC50 was at most 20 nM. With `Cc1cc(-n2nc3c(c2-n2ccn(-c4ccc5c(cnn5C)c4F)c2=O)[C@H](C)N(C(=O)c2cc4cc(N5CCOC(C)(C)C5)ccc4n2C2(c4noc(=O)[nH]4)CC2)CC32CC2)cc(C)c1F` [Compound 177] the figure was at most 20 nM; with `Cc1cc(-n2nc3c(c2-n2ccn(-c4ccc5c(cnn5C)c4F)c2=O)[C@H](C)N(C(=O)c2cc4cc([C@H]5CCOC(C)(C)C5)ccc4n2[C@@]2(c4noc(=O)[nH]4)C[C@@H]2C)CC32CC(OC(C)C)C2)cc(C)c1F` (some centres unmarked) [Compound 192], at most 20 nM; with `COC(=O)N1CCC2(CC1)CN(C(=O)c1cc3cc([C@H]4CCOC(C)(C)C4)ccc3n1[C@@]1(c3noc(=O)[nH]3)C[C@@H]1C)[C@@H](C)c1c2nn(-c2cc(C)c(F)c(C)c2)c1-n1ccn(-c2ccc3c(cnn3C)c2F)c1=O` [Compound 159], at most 20 nM. The result for `Cc1cc(-n2nc3c(c2-n2ccn(-c4ccc5c(cnn5C)c4F)c2=O)[C@H](C)N(C(=O)c2cc4cc([C@H]5CCOC(C)(C)C5)ccc4n2[C@@]2(c4noc(=O)[nH]4)C[C@@H]2C)CC32CC(OC(F)F)C2)cc(C)c1F` (some centres unmarked) [Compound 194] reads at most 20 nM; that for `Cc1cc(-n2nc3c(c2-n2ccn(-c4ccc5c(cnn5C)c4F)c2=O)[C@H](C)N(C(=O)c2cc4cc([C@H]5CCOC(C)(C)C5)ccc4n2[C@@]2(c4noc(=O)[nH]4)C[C@@H]2C)CC32CCCN(C)C2)cc(C)c1F` (single isomer, unassigned) [Compound 53-A], at most 20 nM.

For the compound `Cc1cc(-n2nc3c(c2-n2ccn(-c4ccc5c(cnn5C)c4F)c2=O)[C@H](C)N(C(=O)c2cc4cc([C@H]5CCOC(C)(C)C5)ccc4n2[C@@]2(c4noc(=O)[nH]4)C[C@@H]2C)CC32CCN(C=O)CC2)cc(C)c1F` [Compound 64], the EC50 is at most 20 nM. The result for `Cc1cc(-n2nc3c(c2-n2ccn(-c4ccc5c(cnn5CC(F)(F)F)c4F)c2=O)[C@H](C)N(C(=O)c2cc4cc([C@H]5CCOC(C)(C)C5)ccc4n2[C@@]2(c4noc(=O)[nH]4)C[C@@H]2C)CC32CC2)cc(C)c1F` [Compound 223] reads at most 20 nM; that for `C[C@H]1c2c(nn(-c3ccc(F)c(C4CC4)c3)c2-n2ccn(-c3ccc4c(cnn4C)c3F)c2=O)C2(CC2)CN1C(=O)c1cc2cc(C3CCOC(C)(C)C3)ccn2c1C1(c2noc(=O)[nH]2)CC1` (single isomer, unassigned) [Compound 186-B], 20 to 100 nM; that for `CNC1CC2(C1)CN(C(=O)c1cc3cc([C@H]4CCOC(C)(C)C4)ccc3n1[C@@]1(c3noc(=O)[nH]3)C[C@@H]1C)[C@@H](C)c1c2nn(-c2cc(C)c(F)c(C)c2)c1-n1ccn(-c2ccc3c(cnn3C)c2F)c1=O` (some centres unmarked) [Compound 220], at most 20 nM. `Cc1cc(-n2nc3c(c2-n2ccn(-c4ccc5c(cnn5C)c4F)c2=O)[C@H](C)N(C(=O)c2cc4cc([C@H]5CCOC(C)(C)C5)ccc4n2[C@@]2(c4noc(=O)[nH]4)C[C@@H]2C)CC32CC=CCC2)cc(C)c1F` (some centres unmarked) [Compound 203]: the EC50 is at most 20 nM. With `Cc1cc(-n2nc3c(c2-n2ccn(-c4ccc5c(cnn5C)c4F)c2=O)[C@H](C)N(C(=O)c2cc4cc(C5CCOCC5)ccc4n2[C@@]2(c4noc(=O)[nH]4)C[C@@H]2C)CC32CC2)cc(C)c1F` [Compound 175], the 50% effective concentration (EC50) fell in the range of 20 to 100 nM. With `CCOC1CC2(C1)CN(C(=O)c1cc3cc([C@H]4CCOC(C)(C)C4)ccc3n1[C@@]1(c3noc(=O)[nH]3)C[C@@H]1C)[C@@H](C)c1c2nn(-c2cc(C)c(F)c(C)c2)c1-n1ccn(-c2ccc3c(cnn3C)c2F)c1=O` (some centres unmarked) [Compound 187] the figure was at most 20 nM; with `Cc1cc(-n2nc3c(c2-n2ccn(-c4ccc5c(cnn5C)c4F)c2=O)[C@H](C)N(C(=O)c2cc4cc([C@H]5CCOC(C)(C)C5)ccc4n2C2(c4noc(=O)[nH]4)CC2)CC32CC2)cc(C)c1F` [Compound 169], at most 20 nM.
